Assay results reported in the NIST ThermoML archive (doi:10.1021/acs.jced.5b00933).

Test: mn = molality of the nth substance listed, in mol/kg
Details: 100 kPa, Liquid; for speed of sound: Frequency=3 MHz, Sing-around technique in a fixed-path interferometer; for mass density: Vibrating tube method

O=C([O-])CC(O)(CC(=O)[O-])C(=O)[O-].[K+].[K+].[K+] [potassium citrate] + O
Details | mass density, 288.15 K [kg/m3] | mass density, 298.15 K [kg/m3] | mass density, 308.15 K [kg/m3] | mass density, 318.15 K [kg/m3] | speed of sound, 288.15 K [m/s] | speed of sound, 298.15 K [m/s] | speed of sound, 308.15 K [m/s] | speed of sound, 318.15 K [m/s]
m1 = 0.2 | 1036.81 | 1034.22 | 1030.82 | 1026.73 | 1505.5 | 1533 | 1553.9 | 1568.9
m1 = 0.4 | 1073.44 | 1070.41 | 1066.68 | 1062.34 | 1544.3 | 1569.1 | 1587.9 | 1601.3
m1 = 0.6 | 1128.01 | 1124.42 | 1120.28 | 1115.69 | 1604 | 1625.9 | 1641.7 | 1652.5
